Data reported in patent publication US9828357B2, “Cyclic compounds” (Takeda Pharmaceutical Company Limited, priority 2015, dated 2017).

Legend:
TLR4 signal = assay: Inhibitory effect on TNFα production from HMGB-1 stimulated human Kupffer cell; format: cell-based; conditions: human primary Kupffer cells, HMGB-1 10 μg/mL, 24 hr
Method: TLR4 signal inhibitory activity in human Kupffer cell was evaluated as an inhibition rate of the test compound for TNFα produced by addition of HMGB-1 (SHINO-TEST), using human primary Kupffer cells (Cat# HUKCCS, Lot#HK8226) purchase from GIBCO. Cell suspension prepared in RPMI 1640-Gluta MAX™ medium supplemented with 10% inactivated bovine fetal serum was plated in 96-well I-type collagen-coated plate so as to contain 3.1×10^4 cells/100 μL/well. Then, the cells were cultured for 6 hr at 37° C. under 5% CO2/95% air to be adhered to the bottom of the plate. The non-adhered cells were rinsed off with PBS, and the test compound dissolved in DMSO was added to the adhered cells (final concentration: 1, 10, 100 nM), and the mixture was cultured for 1 hr. Then, HMGB-1 was added thereto (final concentration: 10 μg/mL), and the mixture was incubated for additional 24 hr. TNFα production amount contained in the culture supernatant was quantified by ELISA method (R&D systems). TNFα production inhibition rate (%) was calculated using the value under the HMGB-1-free condition as control of 100% inhibition and the value under the compound-free condition as control of 0% inhibition.

[1] = tested on: oxaliplatin induced-neuropathic pain model mouse; assay: Analgesic action on oxaliplatin induced-neuropathic pain model mouse; format: in vivo; conditions: C57BL/6N mice, 1 week after oxaliplatin 0.3 mg/kg i.p., mean ± standard error
Method: Oxaliplatin was diluted with saline by the predetermined concentration, and administered intraperitoneally to mice (C57BL/6N, male, 8 weeks old) at 0.3 mg/kg. The test compound was dissolved in 10% captisol or 10% captisol containing 0.1% N-methyl-2-pyrrolidone. The compound was administered intravenously (0.1-10 mg/kg body weight) to the mice immediately before intraperitoneal administration of various anticancer drugs. The pain threshold was measured 1 week after oxaliplatin administration. The pain threshold was evaluated as a weighted value (gram) showing pseudo-escape reaction, when the footpad of the right hind limb was pressed using balance type pressurizing device (Ugo Basile). The values in the table show the mean±standard errors of the weighted values.

blood TNFα = assay: Effect on blood TNF-α concentration elevation by LPS stimulation; format: in vivo; conditions: female BALB/c mice; 3 mg/kg intravenously 1 h before LPS 5 mg/kg i.p.; serum 1 h after LPS; vs control group
Method: Various kinds of cytokines are produced in vivo accompanying inflammatory response and abnormal immunity or the like. Therefore, the action of test compound with respect to blood TNFα concentration rise was investigated using laboratory animals.
Female BALB/c mice (6 weeks old) were purchased, and, after preliminary rearing for about 1 week, the mice were divided into groups of four animals. The test compound was dissolved in 10% captisol aqueous solution and was intravenously administered to the test group at a dose of 3 mg/kg. Solvent was administered to control group in the same way. LPS (5 mg/kg) was administered intraperitoneally to the test group and the control group one hour after the administration of the test compound or solvent, and blood was sampled one hour later. The serum was separated from the obtained blood, and the TNFα[…]concentration in the serum was measured using an assay kit made by R&D Systems Inc. The inhibition rates of the test group with respect to the control group are shown in Table 3.

[2] = tested on: liver injury by Galactosamine/LPS stimulation; assay: Action on liver injury by Galactosamine/LPS stimulation (blood plasma ALT); format: in vivo; conditions: BALB/c mice; for ALT amount in the blood plasma: 8 hr, mean ± standard error
Method: The action on liver injury by Galactosamine/LPS stimulation was evaluated by elevation of blood alanine transaminase (ALT) amount as an index. Galactosamine (700 mg/kg) and LPS (5 μg/kg) were administered intraperitoneally to BALB/c mice (female, 7 weeks old, Japan Charles River). After 8 hr, the blood was collected in the presence of heparin. The obtained blood was centrifuged (4° C., 10000×rpm, 10 min), and the blood plasma was collected, and the ALT amount in the blood plasma was measured by 7180 type Hitachi automated analytical apparatus (Hitachi High-Technologies Corporation). Compound 6 was dissolved in 10% captisol solution (0.3, 1, 3 mg/kg), and the solution was administered intravenously to the mice in the tail vein 1 hr before Galactosamine/LPS administration.

CCOC(=O)C1=CC2(CC[C@H]1S(=O)(=O)[C@H]1CCc3cccc(Cl)c31)O[C@H](CO)[C@@H](CO)O2 [Compound 6, Ethyl (2R,3R,8R)-8-(((1S)-7-chloro-2,3-dihydro-1H-inden-1-yl)sulfonyl)-2,3-bis(hydroxymethyl)-1,4-dioxaspiro[4.5]dec-6-ene-7-carboxylate] was tested, and the “TNFα production inhibition rate (% inhibition)” value (TLR4 signal; compound concentration 1 nM) was 45 % inhibition, the “TNFα production inhibition rate (% inhibition)” value (TLR4 signal; compound concentration 10 nM) was 82 % inhibition and the “TNFα production inhibition rate (% inhibition)” value (TLR4 signal; compound concentration 100 nM) was 85 % inhibition. For the same compound, the “Pain threshold (weighted value showing pseudo-escape reaction)” value (“Pain threshold” for short) ([1]; 1 mg/kg i.v.) was 190.0 ± 46.1 gram, the “Pain threshold” value ([1]; 3 mg/kg i.v.) was 153.3 ± 46.1 gram and the “Pain threshold” value ([1]; 10 mg/kg i.v.) was 310.0 ± 45.6 gram. For the same compound, the “Blood TNFα inhibition rate (% inhibition)” value (blood TNFα) was 93.1 % inhibition, the “ALT amount in the blood plasma” value ([2]; 0.3 mg/kg i.v. 1 hr before Galactosamine/LPS) was 570 ± 94 IU/L and the “ALT amount in the blood plasma” value ([2]; 1 mg/kg i.v. 1 hr before Galactosamine/LPS) was 361 ± 60 IU/L. The “ALT amount in the blood plasma” value ([2]; 3 mg/kg i.v. 1 hr before Galactosamine/LPS) was 104 ± 10 IU/L and the “Effect on the increase in the ALT amount in the blood plasma due to Galactosamine/LPS stimulation (in words)” value ([2]; 0.3, 1, 3 mg/kg i.v.) was “dose-dependently and significantly inhibited the increase in the ALT amount”.
